These molecules were tested on TEAD-dependent transcription (assay: Inhibitor activity against TEAD-dependent transcription in a cell-based reporter assay (MSTO-211H+12XGTIIC luciferase)). Conditions: Homo sapiens; MSTO-211H+12XGTIIC cells, 24 hours incubation, luciferase luminescence normalized to cell viability fluorescence, geometric mean; read-out: MSTO-211H GMean IC50 (uM) Cell Assay Reporter Cell Variant: TEAD.
Text: Determine Inhibitor Activity Against TEAD-Dependent Transcription in a Cell-Based Reporter Assay
The human mesothelioma cell line MSTO-211H was stably transfected with a pGL4.21 plasmid containing a synthetic promoter with 12 copies of the GTIIC TEAD response element that drives the expression of a luciferase reporter gene^1 using Lipofectamine transfection reagent (Thermo Fisher). Transfected cells were selected using puromycin and single cell clones expressing this construct (referred to as MSTO-211H+12XGTIIC) were generated by limiting dilution. MSTO-211H cells was characterized by genetic alterations in key components of the Hippo pathway^2, resulting in up-regulation of YAP/TEAD-mediated transcription. […] To evaluate TEAD inhibitors, the MSTO-211H+12XGTIIC cell line was seeded in a 96-well plate in 50 μL of culture media at 1×10^4 cells per well and incubated at 37° C. overnight. Serial dilutions of compounds (in total volume of 50 μL of culture media) were added to the cells and incubated at 37° C. for 24 hours. Each plate included cells treated with DMSO as high controls and cells treated with 20 μM of the reference compound K-975 (a known TEAD inhibitor)^3 as low controls. Cell viability was assayed by the addition of 25 μL of CellTiter-Fluor reagent (Promega) followed by a 30-minute incubation at 37° C. and quantification of the fluorescence signal (Ex400/Em505). Subsequently, luciferase expression was assayed by the addition of 25 μL of ONE-Glo reagent (Promega) followed by a 10-minute incubation at room temperature and quantification of the luminescence signal. The luminescence signal was normalized to the fluorescence signal to correct for any loss in cell viability over the 24-hour compound incubation period. The percentage of inhibition of normalized luminescence signal, indicative of compound-mediated inhibition of TEAD-dependent transcription, at individual compound concentrations relative to high and low controls was calculated. The data were analyzed by using nonlinear regression to generate IC50 values for individual compounds.
With C=CC(=O)N1CCc2ccc(OCc3ccc(F)cc3)cc2C1 [P-0001, 1-(7-((4-fluorobenzyl)oxy)-3,4-dihydroisoquinolin-2(1H)-yl)prop-2-en-1-one] the IC50 was 0.001 to 0.5 µM.
C=CC(=O)N1CCc2ccc(OCc3ccccc3)cc2C1 [P-0002, 1-(7-(benzyloxy)-3,4-dihydroisoquinolin-2(1H)-yl)prop-2-en-1-one] gave an IC50 of 0.001 to 0.5 µM.
Molecule C=CC(=O)N1CCc2cccc(Nc3cccc(F)c3)c2C1 [P-0003, 1-(8-((3-fluorophenyl)amino)-3,4-dihydroisoquinolin-2(1H)-yl)prop-2-en-1-one] has an IC50 of 0.5 to 20 µM.
In the case of C=CC(=O)N1CCc2ccc(Nc3cccc(F)c3)cc2C1 [P-0004, 1-(7-((3-fluorophenyl)amino)-3,4-dihydroisoquinolin-2(1H)-yl)prop-2-en-1-one], the IC50 is reported as 0.001 to 0.5 µM.
Molecule C=CC(=O)N1CCc2cccc(Oc3cccc(F)c3)c2C1 [P-0005, 1-(8-(3-fluorophenoxy)-3,4-dihydroisoquinolin-2(1H)-yl)prop-2-en-1-one] has an IC50 of 0.001 to 0.5 µM.
C=CC(=O)N1CCc2ccc(Oc3cccc(F)c3)cc2C1 [P-0006, 1-(7-(3-fluorophenoxy)-3,4-dihydroisoquinolin-2(1H)-yl)prop-2-en-1-one] gave an IC50 of 0.001 to 0.5 µM.
C=CC(=O)N1CCc2ccc(Oc3ccccc3)cc2C1 [P-0007, 1-(7-phenoxy-3,4-dihydroisoquinolin-2(1H)-yl)prop-2-en-1-one] gave an IC50 of 0.001 to 0.5 µM.
In the case of C=CC(=O)N1CCc2ccc(Oc3ccc(F)cc3F)cc2C1 [P-0008, 1-(7-(2,4-difluorophenoxy)-3,4-dihydroisoquinolin-2(1H)-yl)prop-2-en-1-one], the IC50 is reported as 0.001 to 0.5 µM.
With C=CC(=O)N1CCc2ccc(OC3CCOCC3)cc2C1 [P-0009, 1-(7-((tetrahydro-2H-pyran-4-yl)oxy)-3,4-dihydroisoquinolin-2(1H)-yl)prop-2-en-1-one] the IC50 was 0.001 to 0.5 µM.
C=CC(=O)N1CCc2ccc(Nc3ccccc3)cc2C1 [P-0010, 1-(7-(phenylamino)-3,4-dihydroisoquinolin-2(1H)-yl)prop-2-en-1-one] was tested, and the IC50 was 0.001 to 0.5 µM.
C=CC(=O)N1CCc2ccc(Nc3ccnc(C(F)(F)F)c3)cc2C1 [P-0011, 1-(7-((2-(trifluoromethyl)pyridin-4-yl)amino)-3,4-dihydroisoquinolin-2(1H)-yl)prop-2-en-1-one] gave an IC50 of 0.5 to 20 µM.
For C=CC(=O)N1CCc2ccc(Nc3ccc(C(F)(F)F)nc3)cc2C1 [P-0012, 1-(7-((6-(trifluoromethyl)pyridin-3-yl)amino)-3,4-dihydroisoquinolin-2(1H)-yl)prop-2-en-1-one], the IC50 was 0.5 to 20 µM.
In the case of C=CC(=O)N1CCc2ccc(Oc3ccc(F)cc3)cc2C1 [P-0013, 1-(7-(4-fluorophenoxy)-3,4-dihydroisoquinolin-2(1H)-yl)prop-2-en-1-one], the IC50 is reported as 0.001 to 0.5 µM.
Molecule C=CC(=O)N1CCc2ccc(Oc3cccc(Cl)c3)cc2C1 [P-0014, 1-(7-(3-chlorophenoxy)-3,4-dihydroisoquinolin-2(1H)-yl)prop-2-en-1-one] has an IC50 of 0.001 to 0.5 µM.
For C=CC(=O)N1CCc2ccc(Oc3ccc(Cl)cc3)cc2C1 [P-0015, 1-(7-(4-chlorophenoxy)-3,4-dihydroisoquinolin-2(1H)-yl)prop-2-en-1-one], the IC50 was 0.001 to 0.5 µM.
In the case of C=CC(=O)N1CCc2ccc(Oc3ccc(F)c(F)c3)cc2C1 [P-0016, 1-(7-(3,4-difluorophenoxy)-3,4-dihydroisoquinolin-2(1H)-yl)prop-2-en-1-one], the IC50 is reported as 0.001 to 0.5 µM.
Molecule C=CC(=O)N1CCc2ccc(Oc3cccc(C(F)(F)F)c3)cc2C1 [P-0017, 1-(7-(3-(trifluoromethyl)phenoxy)-3,4-dihydroisoquinolin-2(1H)-yl)prop-2-en-1-one] has an IC50 of 0.001 to 0.5 µM.
C=CC(=O)N1CCc2ccc(Oc3ccc(C(F)(F)F)cc3)cc2C1 [P-0018, 1-(7-(4-(trifluoromethyl)phenoxy)-3,4-dihydroisoquinolin-2(1H)-yl)prop-2-en-1-one] showed an IC50 of 0.001 to 0.5 µM.
In the case of C=CC(=O)N1CCc2ccc(Oc3cccnc3)cc2C1 [P-019, 1-(7-(pyridin-3-yloxy)-3,4-dihydroisoquinolin-2(1H)-yl)prop-2-en-1-one], the IC50 is reported as 0.001 to 0.5 µM.
With C=CC(=O)N1CCc2ccc(OC3CC(F)(F)C3)cc2C1 [P-0020, 1-(7-(3,3-difluorocyclobutoxy)-3,4-dihydroisoquinolin-2(1H)-yl)prop-2-en-1-one] the IC50 was 0.001 to 0.5 µM.
Molecule C=CC(=O)N1CCc2ccc(OC34CC5CC(CC(C5)C3)C4)cc2C1 [P-0021, 1-(7-(((3R,5R)-adamantan-1-yl)oxy)-3,4-dihydroisoquinolin-2(1H)-yl)prop-2-en-1-one] has an IC50 of 0.001 to 0.5 µM.
Work on C=CC(=O)N1CCc2ccc(Nc3ccccc3F)cc2C1 [P-0022, 1-(7-((2-fluorophenyl)amino)-3,4-dihydroisoquinolin-2(1H)-yl)prop-2-en-1-one] yielded an IC50 of 0.001 to 0.5 µM.
Work on C=CC(=O)N1CCc2ccc(Nc3ccc(F)cc3)cc2C1 [P-0023, 1-(7-((4-fluorophenyl)amino)-3,4-dihydroisoquinolin-2(1H)-yl)prop-2-en-1-one] yielded an IC50 of 0.001 to 0.5 µM.
C=CC(=O)N1CCc2ccc(Nc3cccc(Cl)c3)cc2C1 [P-0024, 1-(7-((3-chlorophenyl)amino)-3,4-dihydroisoquinolin-2(1H)-yl)prop-2-en-1-one] was tested, and the IC50 was 0.001 to 0.5 µM.
C=CC(=O)N1CCc2ccc(Nc3cccc(C(F)(F)F)c3)cc2C1 [P-0025, 1-(7-((3-(trifluoromethyl)phenyl)amino) -3,4-dihydroisoquinolin-2(1H)-yl)prop-2-en-1-one] was tested, and the IC50 was 0.001 to 0.5 µM.
In the case of C=CC(=O)N1CCc2ccc(N(C)c3ccccc3)cc2C1 [P-0026, 1-(7-(methyl(phenyl)amino)-3,4-dihydroisoquinolin-2(1H)-yl)prop-2-en-1-one], the IC50 is reported as 0.001 to 0.5 µM.
In the case of C=CC(=O)N1CCc2ccc(Oc3ccc(C(F)(F)F)nc3)cc2C1 [P-0027, 1-(7-((6-(trifluoromethyl)pyridin-3-yl)oxy)-3,4-dihydroisoquinolin-2(1H)-yl)prop-2-en-1-one], the IC50 is reported as 0.001 to 0.5 µM.
In the case of C=CC(=O)N1CCc2ccc(OC3CCN(S(C)(=O)=O)CC3)cc2C1 [P-0028, 1-(7-((1-(methylsulfonyl)piperidin-4-yl)oxy)-3,4-dihydroisoquinolin-2(1H)-yl)prop-2-en-1-one], the IC50 is reported as 0.5 to 20 µM.
Molecule C=CC(=O)N1CCc2ccc(NC3CCC(F)(F)CC3)cc2C1 [P-0029, 1-(7-((4,4-difluorocyclohexyl)amino)-3,4-dihydroisoquinolin-2(1H)-yl)prop-2-en-1-one] has an IC50 of 0.001 to 0.5 µM.
C=CC(=O)N1CCc2cc(F)c(Oc3ccccc3)cc2C1 [P-0030, 1-(6-fluoro-7-phenoxy-3,4-dihydroisoquinolin-2(1H)-yl)prop-2-en-1-one] showed an IC50 of 0.001 to 0.5 µM.
C=CC(=O)N1CCc2cc(F)c(Oc3cccc(F)c3)cc2C1 [P-0031, 1-(6-fluoro-7-(3-fluorophenoxy)-3,4-dihydroisoquinolin-2(1H)-yl)prop-2-en-1-one] gave an IC50 of 0.001 to 0.5 µM.
Work on C=CC(=O)N1CCc2cc(F)c(Oc3ccc(F)cc3)cc2C1 [P-0032, 1-(6-fluoro-7-(4-fluorophenoxy)-3,4-dihydroisoquinolin-2(1H)-yl)prop-2-en-1-one] yielded an IC50 of 0.001 to 0.5 µM.
Work on C=CC(=O)N1CCc2ccc(Cc3ccccc3)cc2C1 [P-0033, 1-(7-benzyl-3,4-dihydroisoquinolin-2(1H)-yl)prop-2-en-1-one] yielded an IC50 of 0.001 to 0.5 µM.
With C=CC(=O)N1CCc2ccc(Cc3cccc(F)c3)cc2C1 [P-0034, 1-(7-(3-fluorobenzyl)-3,4-dihydroisoquinolin-2(1H)-yl)prop-2-en-1-one] the IC50 was 0.001 to 0.5 µM.
For C=CC(=O)N1CCc2ccc(Cc3ccc(F)cc3)cc2C1 [P-0035, 1-(7-(4-fluorobenzyl)-3,4-dihydroisoquinolin-2(1H)-yl)prop-2-en-1-one], the IC50 was 0.001 to 0.5 µM.
With C=CC(=O)N1CCc2ccc(Oc3ccc(C)nc3)cc2C1 [P-0036, 1-(7-((6-methylpyridin-3-yl)oxy)-3,4-dihydroisoquinolin-2(1H)-yl)prop-2-en-1-one] the IC50 was 0.001 to 0.5 µM.
C=C(F)C(=O)N1CCc2ccc(Oc3cccc(F)c3)cc2C1 [P-0037, 2-fluoro-1-(7-(3-fluorophenoxy)-3,4-dihydroisoquinolin-2(1H)-yl)prop-2-en-1-one] showed an IC50 of 0.001 to 0.5 µM.
With C=C(CO)C(=O)N1CCc2ccc(Oc3cccc(F)c3)cc2C1 [P-0038, 1-(7-(3-fluorophenoxy)-3,4-dihydroisoquinolin-2(1H)-yl)-2-(hydroxymethyl)prop-2-en-1-one] the IC50 was 0.001 to 0.5 µM.
For O=C(/C=C/CN1CCOCC1)N1CCc2ccc(Oc3cccc(F)c3)cc2C1 [P-0039, (E)-1-(7-(3-fluorophenoxy)-3,4-dihydroisoquinolin-2(1H)-yl)-4-morpholinobut-2-en-1-one], the IC50 was > 20 µM.
In the case of CN1CCN(C/C=C/C(=O)N2CCc3ccc(Oc4cccc(F)c4)cc3C2)CC1 [P-0040, (E)-1-(7-(3-fluorophenoxy)-3,4-dihydroisoquinolin-2(1H)-yl)-4-(4-methylpiperazin-1-yl)but-2-en-1-one], the IC50 is reported as > 20 µM.
With C=CC(=O)N1CCc2cc(C)c(Oc3ccccc3)cc2C1 [P-0041, 1-(6-methyl-7-phenoxy-3,4-dihydroisoquinolin-2(1H)-yl)prop-2-en-1-one] the IC50 was 0.001 to 0.5 µM.
